Columns and labels:
toxicity in rats = format: in vivo; conditions: dose 1 g/kg
[1] = tolerability (hypersensitivity, allergic reactions, harmlessness); conditions: in vivo
[2] = test system: thrombin from human plasma; test: thrombin-inhibition test with Chromozym TH; format: biochemical; conditions: for Thrombin inhibition (%): Experimental conditions No. 1, Table 1
Procedure: The cells (50 ml of the growing culture) are harvested and resuspended in 5 ml of a solution of 50 mM tris.HCl (pH 8.0) and 30 mM NaCl. Subsequently, the suspension is shaken with 5 g of cooled glass beads (diameter 0.5 mm), or by the addition of lysozyme (Boehringer), final concentration 1 mg/ml, at intervals during 30 to 45 minutes on a Multi-Tube Vortexer at high intensity. 0.5 ml of 2% acetic acid are added to 0.5 ml of the mixture which is then centrifuged at 12,000 revs/min for 20 minutes at 4° C. The supernatant solution is examined for hirudin activity (inhibition of thrombin). The thrombin-inhibition test is carried out as follows:
The test is based on the determination of the enzymatic removal of p-nitroaniline from the substrate Chromozym TH (tosyl-glycyl-prolyl-arginine-4-nitroanilide-acetate). […] The reaction time is 2 hours at 37° C. in the incubation chamber. For the test, 20 μl of the solution to be determined is diluted with 30 μl of filling buffer (0.2M tris.HCl pH 7.5, 1M NaCl, 100 μg/ml bovine serum albumin), and 20 μl of enzyme solution [10 mg of lyophilised thrombin from human plasma (Boehringer) dissolved in 1 ml of bidistilled water and diluted approximately 1:400 with the above filling buffer] and 150 μof substrate solution [[…] chromozym TH (Boehringer) dissolved in 4 ml of bidistilled water and diluted 1:15 with the above filling buffer] are added. All solutions are measured against a blank solution consisting of 70 μl of filling buffer (see above) and 150 μl of substrate solution and against an enzyme control solution consisting of 50 μl of filling buffer, 20 μl of enzyme solution and 150 μl of substrate solution. […] The thrombin inhibition (as a %) of the samples is calculated in accordance with the following formula: [formula]

[3] = test system: other enzymes of the blood coagulation cascade; test: action on other enzymes/proteinases of the blood coagulation system; format: biochemical; conditions: desulphatohirudin
[4] = intravenously to dogs, even in high doses; cited from earlier work
[5] = test system: experimental thrombosis (induced either by stasis or by the injection of thrombin), endotoxin shock, DIC; conditions: cited from earlier work
[6] = test system: other enzymes of the blood coagulation cascade; conditions: natural hirudin; cited from earlier work

Substance | active toxicity (toxicity in rats) | hypersensitivity reactions or allergic reactions [1] | thrombin inhibition ([2]; HPLC fraction from S. cerevisiae GRF18/pJDB207R/PH05-HIR, conditions as in Example 26a) [%] | Thrombin inhibition (%) ([2]; RP-HPLC fractions) | Thrombin inhibition (%) ([2]; RP-HPLC fractions, listed as Fr 14) | Thrombin-inhibition % ([2]; RP-HPLC fractions, Experimental conditions No. 2, Table 2) [%] | specificity to thrombin / interactions with other proteinases of the blood coagulation system [3] | effect on heart rate, respiration, blood pressure, thrombocyte count, fibrinogen and haemoglobin [4] | direct comparison tests with heparin ([5]; in vivo) | efficacy in experimental thrombosis, endotoxin shock and DIC ([5]; rats, pigs and dogs) | inhibition of other enzymes of the blood coagulation cascade [6]
desulphatohirudin | no toxic effects | no hypersensitivity reactions or allergic reactions | 89.6 | 86 | 79 | 97.3 ± 2 | completely specific to thrombin |  |  |  | 
hirudin |  |  |  |  |  |  |  | No effect | superior to heparin | effective | not inhibited

— US5422249A, “Process for the manufacture of thrombin inhibitors” (Ciba-Geigy Corporation, priority 1984, dated 1995)
